Results as given in patent publication US20230338541A1, “USE OF HIGH MOLECULAR WEIGHT HYALURONIC ACID AS OCULAR TRANSPORTING VEHICLE” (I.COM MEDICAL GMBH, priority 2020, published 2023).

Experiment: Pre-test: latanoprost dissolved in the 0.15% hylan A vehicle, HPLC
Type: physicochemical
Conditions: 0.15% w/v hylan A vehicle, stirred 18 hours at 40° C., 25 or 50 μg/ml added
Protocol: Sterile bulk solution for the production of COMFORT SHIELD® MDS eye drops (i.com medical GmbH, Munich, Germany) was used as vehicle for the preparation of prototype latanoprost bulk solution (PLBS). The vehicle contained 0.15% w/v hylan A (HA with 2.9 m^3/kg intrinsic viscosity) dissolved in phosphate buffered saline solution (8.035 g/l NaCl; 1.2 mmol/1 Na2HPO4/NaH2PO4; pH 7.4). Latanoprost was obtained from Yonsung Fine Chemicals Co. Ltd., Gyeonggi-do, Republic of Korea. PLBS was prepared by medi-pharm Laboratorium GmbH, Falkensee, Germany by dissolving 20±1 μg/ml latanoprost in the vehicle.
In a pre-test 25 μg/ml and 50 μg/ml latanoprost were added to the vehicle and the solution stirred for 18 hours at 40° C. The latanoprost content was determined by HPLC using a Hypersil BDS C18 5 μg, 150.0×4.0 mm column (VDS optilab) and a UV detector (200 nm).

SMILES: CC(C)OC(=O)CCC/C=C\C[C@@H]1[C@@H](CC[C@@H](O)CCc2ccccc2)[C@H](O)C[C@@H]1O [latanoprost, Latanoprost]
- latanoprost found to be dissolved in the vehicle: 20.8 µg/mL
